The experiment concerns the target T1, HpDHQS (dehydroquinate synthase of H. pylori) (Helicobacter pylori, UniProt P56081, I144T).
T1 construct: His tag (inferred from the pQE30 vector and nickel-ion purification); made in house; host or cells: E. coli JM109
T1 sequence (P56081 1-343 I144T): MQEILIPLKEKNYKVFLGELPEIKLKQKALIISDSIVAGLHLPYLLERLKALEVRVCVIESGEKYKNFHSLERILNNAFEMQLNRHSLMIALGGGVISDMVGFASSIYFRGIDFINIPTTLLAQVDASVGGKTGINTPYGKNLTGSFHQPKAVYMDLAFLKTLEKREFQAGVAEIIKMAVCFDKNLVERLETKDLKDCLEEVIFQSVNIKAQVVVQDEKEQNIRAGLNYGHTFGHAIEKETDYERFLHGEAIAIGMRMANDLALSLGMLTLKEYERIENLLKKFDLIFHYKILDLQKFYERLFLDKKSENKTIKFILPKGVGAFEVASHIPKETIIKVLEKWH
The experiment in a line: HpDHQS inhibition assay (thiobarbiturate assay of residual DAHP). It counts as biochemical. Particulars: 1 μM HpDHQS, 37° C., pH 7.0. Here is the method: The level of DAHP was determined by a thiobarbiturate assay method. All assays were conducted at 37° C. in a 200-μl solution containing 20 mM Bis-Tris propane buffer (pH 7.0), 0.5 mM DAHP, 0.02 mM cobalt chloride, 0.02 mM NAD^+ and 1 μM HpDHQS. The residual DAHP was oxidized by per-iodate to produce formylpyruvate, which then reacted with thiobarbiturate to yield a pink adduct, and this chromophore was monitored at A549 after extraction into cyclohexanone.
Compounds were prepared to 100 mM in dimethylsulfoxide (DMSO) solutions. A 5% DMSO control was included for each set of measurements. About 1 μM HpDHQS was added to the mixture containing the compound to be tested with the standard assay mixture. The test compounds were also evaluated whether they interfered the thiobarbiturate assay system in the absence of HpDHQS. The initial velocities were plotted against the inhibitor concentrations to obtain the IC50 by using the following equation A[I]=A[0]×{1−([I]/[I]+IC50)]} wherein A[I] was the enzyme activity with inhibitor concentration [I], and A[0] was the enzyme activity without the inhibitor.

pIC50: −log10 of the molar value.

On to `CSc1c(C#N)c(N)nc(SCC(=O)c2cccc([N+](=O)[O-])c2)c1C#N` [RH00573, 2-amino-4-methylsulfanyl-6-[2-(3-nitrophenyl)-2-oxoethyl]sulfanylpyridine-3,5-dicarbonitrile], for which the pIC50 was 4.07. Under `CC1CCc2c(sc(NC(=O)CSc3nc4ccccc4s3)c2C#N)C1` (centres unmarked) [HTS11955, 2-(1,3-benzothiazol-2-ylsulfanyl)-N-(3-cyano-6-methyl-4,5,6,7-tetrahydro-1-benzothiophen-2-yl)acetamide] stands 4.21.

One may read the pIC50 as the IC50 on a negative log10 scale, so that one unit is a factor of ten.

The record behind these values is patent US8175860B2, “Method of inhibiting the growth of Helicobacter pylori” (priority 2009, dated 2012).
